ChEMBL document CHEMBL5291721, “A preclinical secondary pharmacology resource illuminates target-adverse drug reaction associations of marketed drugs” (Nat Commun, 2023)

Key:
[1] = target: 5-hydroxytryptamine receptor 2B (Homo sapiens, UniProt P41595)
[2] = target: 5-hydroxytryptamine receptor 6 (Homo sapiens, UniProt P50406)
D(1A) dopamine receptor = D(1A) dopamine receptor (Homo sapiens, UniProt P21728)
Cannabinoid receptor 1 = Cannabinoid receptor 1 (Homo sapiens, UniProt P21554); type: functional
Estrogen receptor beta = Estrogen receptor beta (Homo sapiens, UniProt Q92731)
Androgen receptor [3] = target: T1, Androgen receptor (Rattus norvegicus, UniProt P15207)
T1 sequence (P15207 whole entry): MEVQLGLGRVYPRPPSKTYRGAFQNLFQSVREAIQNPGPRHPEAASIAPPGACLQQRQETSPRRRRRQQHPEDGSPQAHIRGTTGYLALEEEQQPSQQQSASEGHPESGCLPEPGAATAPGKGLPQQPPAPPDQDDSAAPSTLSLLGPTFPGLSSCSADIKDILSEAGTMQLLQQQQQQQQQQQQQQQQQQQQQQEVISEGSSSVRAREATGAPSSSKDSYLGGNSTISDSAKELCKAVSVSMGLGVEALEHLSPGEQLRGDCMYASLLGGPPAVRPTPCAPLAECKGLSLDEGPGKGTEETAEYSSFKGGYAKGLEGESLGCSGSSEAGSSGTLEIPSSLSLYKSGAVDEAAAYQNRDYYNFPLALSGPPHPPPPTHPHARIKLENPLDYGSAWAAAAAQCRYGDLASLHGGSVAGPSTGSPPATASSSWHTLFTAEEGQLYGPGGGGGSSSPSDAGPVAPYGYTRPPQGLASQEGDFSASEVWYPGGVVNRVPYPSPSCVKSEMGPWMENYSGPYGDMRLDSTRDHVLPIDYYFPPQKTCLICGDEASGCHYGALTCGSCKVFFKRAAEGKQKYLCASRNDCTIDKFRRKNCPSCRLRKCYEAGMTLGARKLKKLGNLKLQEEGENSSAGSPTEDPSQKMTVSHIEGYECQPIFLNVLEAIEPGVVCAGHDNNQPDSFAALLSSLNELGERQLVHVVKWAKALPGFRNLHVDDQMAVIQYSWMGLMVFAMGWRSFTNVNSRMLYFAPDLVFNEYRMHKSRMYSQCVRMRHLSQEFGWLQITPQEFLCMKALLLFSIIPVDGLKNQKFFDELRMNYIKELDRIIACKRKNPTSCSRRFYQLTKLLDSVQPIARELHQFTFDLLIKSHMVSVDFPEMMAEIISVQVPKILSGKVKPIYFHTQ

[4] = target: T2, Muscarinic acetylcholine receptor M4 (Homo sapiens, UniProt P08173)
T2 sequence (P08173 whole entry): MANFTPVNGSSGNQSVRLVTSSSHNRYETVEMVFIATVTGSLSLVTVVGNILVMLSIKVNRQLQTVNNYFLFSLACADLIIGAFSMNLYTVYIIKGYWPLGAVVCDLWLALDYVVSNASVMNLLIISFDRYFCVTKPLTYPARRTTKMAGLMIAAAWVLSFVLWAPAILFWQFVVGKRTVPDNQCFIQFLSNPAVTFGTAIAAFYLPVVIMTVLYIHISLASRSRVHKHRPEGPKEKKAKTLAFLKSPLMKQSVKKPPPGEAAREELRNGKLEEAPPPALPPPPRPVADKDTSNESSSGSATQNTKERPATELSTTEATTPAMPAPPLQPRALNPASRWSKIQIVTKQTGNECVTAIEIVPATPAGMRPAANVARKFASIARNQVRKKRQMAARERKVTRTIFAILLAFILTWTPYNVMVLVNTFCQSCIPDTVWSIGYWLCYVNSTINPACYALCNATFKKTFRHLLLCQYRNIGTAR

[5] = target: 5-hydroxytryptamine receptor 7 (Homo sapiens, UniProt P34969)
[6] = target: Synaptic vesicular amine transporter (Rattus norvegicus, UniProt Q01827); type: functional
[7] = target: Voltage-dependent L-type calcium channel subunit alpha-1C (Homo sapiens, UniProt Q13936); type: functional, cell-based
Thromboxane A2 receptor = target: T3, Thromboxane A2 receptor (Homo sapiens, UniProt P21731); type: functional
T3 sequence (P21731 whole entry): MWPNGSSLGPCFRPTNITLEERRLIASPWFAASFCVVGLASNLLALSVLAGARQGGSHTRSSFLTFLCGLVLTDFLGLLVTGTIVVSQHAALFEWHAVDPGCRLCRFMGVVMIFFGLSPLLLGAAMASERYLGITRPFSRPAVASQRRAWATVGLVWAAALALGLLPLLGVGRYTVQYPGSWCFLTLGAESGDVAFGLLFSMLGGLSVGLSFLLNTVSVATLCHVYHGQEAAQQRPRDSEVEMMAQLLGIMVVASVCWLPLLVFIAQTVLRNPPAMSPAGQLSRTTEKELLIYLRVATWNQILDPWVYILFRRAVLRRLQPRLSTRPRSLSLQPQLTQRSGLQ

Acetylcholinesterase = Acetylcholinesterase (Homo sapiens, UniProt P22303); type: functional
Androgen receptor [8] = target: T1, Androgen receptor; type: functional
[9] = target: T4, Muscarinic acetylcholine receptor M1 (Homo sapiens, UniProt P11229)
T4 sequence (P11229 whole entry): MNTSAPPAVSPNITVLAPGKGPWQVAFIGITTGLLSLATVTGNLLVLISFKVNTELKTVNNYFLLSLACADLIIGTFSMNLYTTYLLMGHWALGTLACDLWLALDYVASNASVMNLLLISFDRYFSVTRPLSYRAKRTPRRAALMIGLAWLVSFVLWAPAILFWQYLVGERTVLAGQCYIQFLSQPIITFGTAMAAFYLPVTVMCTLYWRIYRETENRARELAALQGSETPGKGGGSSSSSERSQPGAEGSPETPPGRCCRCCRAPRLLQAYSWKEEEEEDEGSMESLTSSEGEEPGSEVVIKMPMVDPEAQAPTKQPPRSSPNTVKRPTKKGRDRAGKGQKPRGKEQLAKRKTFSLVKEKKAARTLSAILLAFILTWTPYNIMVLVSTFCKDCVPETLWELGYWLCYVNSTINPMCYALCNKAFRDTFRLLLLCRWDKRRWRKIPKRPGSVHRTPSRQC
Also: assay procedure not described here.

Sequence of Cannabinoid receptor 1 (P21554 whole entry): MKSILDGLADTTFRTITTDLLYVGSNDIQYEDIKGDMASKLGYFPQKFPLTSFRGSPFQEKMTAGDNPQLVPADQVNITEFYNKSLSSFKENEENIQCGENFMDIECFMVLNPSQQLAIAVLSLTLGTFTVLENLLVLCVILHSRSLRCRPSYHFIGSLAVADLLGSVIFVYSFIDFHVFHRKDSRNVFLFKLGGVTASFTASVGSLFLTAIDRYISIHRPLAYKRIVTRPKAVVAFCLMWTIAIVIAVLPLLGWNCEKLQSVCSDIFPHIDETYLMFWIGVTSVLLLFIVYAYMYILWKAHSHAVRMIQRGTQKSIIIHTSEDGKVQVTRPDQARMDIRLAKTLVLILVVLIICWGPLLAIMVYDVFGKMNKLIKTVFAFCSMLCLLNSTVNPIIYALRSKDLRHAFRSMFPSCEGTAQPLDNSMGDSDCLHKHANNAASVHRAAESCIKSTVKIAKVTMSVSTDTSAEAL
Sequence of Acetylcholinesterase (P22303 whole entry): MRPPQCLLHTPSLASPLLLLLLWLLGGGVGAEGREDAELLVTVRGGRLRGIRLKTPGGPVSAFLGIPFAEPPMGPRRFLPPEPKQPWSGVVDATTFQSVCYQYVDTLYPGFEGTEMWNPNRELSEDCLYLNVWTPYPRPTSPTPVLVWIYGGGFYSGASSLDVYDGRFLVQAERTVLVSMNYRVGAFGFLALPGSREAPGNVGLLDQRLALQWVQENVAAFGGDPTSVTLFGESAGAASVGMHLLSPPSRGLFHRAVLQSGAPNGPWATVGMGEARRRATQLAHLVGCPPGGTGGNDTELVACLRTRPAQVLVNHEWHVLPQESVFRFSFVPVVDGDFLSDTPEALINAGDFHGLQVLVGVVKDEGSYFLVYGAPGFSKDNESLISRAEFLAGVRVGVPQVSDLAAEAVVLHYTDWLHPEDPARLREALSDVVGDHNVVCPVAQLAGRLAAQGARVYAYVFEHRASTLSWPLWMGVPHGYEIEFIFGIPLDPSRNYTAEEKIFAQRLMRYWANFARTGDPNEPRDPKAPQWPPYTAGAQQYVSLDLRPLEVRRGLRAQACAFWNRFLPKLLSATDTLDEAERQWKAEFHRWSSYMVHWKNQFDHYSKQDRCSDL
Sequence of Estrogen receptor beta (Q92731 whole entry): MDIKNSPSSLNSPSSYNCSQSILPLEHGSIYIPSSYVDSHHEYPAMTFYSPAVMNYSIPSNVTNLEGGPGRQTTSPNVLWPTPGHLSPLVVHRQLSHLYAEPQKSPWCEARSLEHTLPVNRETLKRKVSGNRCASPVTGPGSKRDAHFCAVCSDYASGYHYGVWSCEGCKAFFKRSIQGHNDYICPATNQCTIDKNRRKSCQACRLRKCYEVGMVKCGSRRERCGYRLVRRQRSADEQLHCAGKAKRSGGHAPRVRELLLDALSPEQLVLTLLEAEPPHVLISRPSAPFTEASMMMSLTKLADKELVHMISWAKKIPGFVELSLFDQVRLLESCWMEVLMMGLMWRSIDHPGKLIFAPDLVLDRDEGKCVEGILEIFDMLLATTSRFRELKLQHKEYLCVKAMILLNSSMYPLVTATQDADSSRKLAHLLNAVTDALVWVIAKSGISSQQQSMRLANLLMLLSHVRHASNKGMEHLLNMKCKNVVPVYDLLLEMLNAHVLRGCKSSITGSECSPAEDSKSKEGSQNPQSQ
Sequence of D(1A) dopamine receptor (P21728 whole entry): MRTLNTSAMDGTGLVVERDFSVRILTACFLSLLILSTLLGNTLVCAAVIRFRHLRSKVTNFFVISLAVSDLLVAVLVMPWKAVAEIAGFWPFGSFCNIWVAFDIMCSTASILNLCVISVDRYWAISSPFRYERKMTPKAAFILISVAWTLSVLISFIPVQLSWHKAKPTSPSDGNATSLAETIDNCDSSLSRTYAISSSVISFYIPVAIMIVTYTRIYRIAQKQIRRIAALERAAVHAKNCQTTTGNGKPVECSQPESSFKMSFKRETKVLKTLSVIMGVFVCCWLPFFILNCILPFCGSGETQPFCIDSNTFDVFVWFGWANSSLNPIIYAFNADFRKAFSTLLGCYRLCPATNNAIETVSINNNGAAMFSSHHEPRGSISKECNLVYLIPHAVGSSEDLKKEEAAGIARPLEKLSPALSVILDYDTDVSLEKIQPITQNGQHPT
Sequence of 5-hydroxytryptamine receptor 7 (P34969 whole entry): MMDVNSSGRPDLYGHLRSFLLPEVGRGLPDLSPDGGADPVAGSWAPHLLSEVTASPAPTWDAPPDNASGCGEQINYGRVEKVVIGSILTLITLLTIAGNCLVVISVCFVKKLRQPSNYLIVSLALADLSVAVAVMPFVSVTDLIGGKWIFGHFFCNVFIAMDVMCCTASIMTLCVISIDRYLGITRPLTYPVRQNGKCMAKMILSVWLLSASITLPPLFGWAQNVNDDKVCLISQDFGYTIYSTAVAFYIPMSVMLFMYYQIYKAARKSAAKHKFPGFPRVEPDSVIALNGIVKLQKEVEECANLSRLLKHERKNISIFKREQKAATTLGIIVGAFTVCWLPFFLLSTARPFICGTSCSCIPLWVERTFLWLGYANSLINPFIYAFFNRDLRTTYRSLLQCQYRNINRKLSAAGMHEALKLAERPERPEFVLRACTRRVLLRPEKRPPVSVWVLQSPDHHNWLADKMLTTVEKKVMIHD
Sequence of Voltage-dependent L-type calcium channel subunit alpha-1C (Q13936 whole entry): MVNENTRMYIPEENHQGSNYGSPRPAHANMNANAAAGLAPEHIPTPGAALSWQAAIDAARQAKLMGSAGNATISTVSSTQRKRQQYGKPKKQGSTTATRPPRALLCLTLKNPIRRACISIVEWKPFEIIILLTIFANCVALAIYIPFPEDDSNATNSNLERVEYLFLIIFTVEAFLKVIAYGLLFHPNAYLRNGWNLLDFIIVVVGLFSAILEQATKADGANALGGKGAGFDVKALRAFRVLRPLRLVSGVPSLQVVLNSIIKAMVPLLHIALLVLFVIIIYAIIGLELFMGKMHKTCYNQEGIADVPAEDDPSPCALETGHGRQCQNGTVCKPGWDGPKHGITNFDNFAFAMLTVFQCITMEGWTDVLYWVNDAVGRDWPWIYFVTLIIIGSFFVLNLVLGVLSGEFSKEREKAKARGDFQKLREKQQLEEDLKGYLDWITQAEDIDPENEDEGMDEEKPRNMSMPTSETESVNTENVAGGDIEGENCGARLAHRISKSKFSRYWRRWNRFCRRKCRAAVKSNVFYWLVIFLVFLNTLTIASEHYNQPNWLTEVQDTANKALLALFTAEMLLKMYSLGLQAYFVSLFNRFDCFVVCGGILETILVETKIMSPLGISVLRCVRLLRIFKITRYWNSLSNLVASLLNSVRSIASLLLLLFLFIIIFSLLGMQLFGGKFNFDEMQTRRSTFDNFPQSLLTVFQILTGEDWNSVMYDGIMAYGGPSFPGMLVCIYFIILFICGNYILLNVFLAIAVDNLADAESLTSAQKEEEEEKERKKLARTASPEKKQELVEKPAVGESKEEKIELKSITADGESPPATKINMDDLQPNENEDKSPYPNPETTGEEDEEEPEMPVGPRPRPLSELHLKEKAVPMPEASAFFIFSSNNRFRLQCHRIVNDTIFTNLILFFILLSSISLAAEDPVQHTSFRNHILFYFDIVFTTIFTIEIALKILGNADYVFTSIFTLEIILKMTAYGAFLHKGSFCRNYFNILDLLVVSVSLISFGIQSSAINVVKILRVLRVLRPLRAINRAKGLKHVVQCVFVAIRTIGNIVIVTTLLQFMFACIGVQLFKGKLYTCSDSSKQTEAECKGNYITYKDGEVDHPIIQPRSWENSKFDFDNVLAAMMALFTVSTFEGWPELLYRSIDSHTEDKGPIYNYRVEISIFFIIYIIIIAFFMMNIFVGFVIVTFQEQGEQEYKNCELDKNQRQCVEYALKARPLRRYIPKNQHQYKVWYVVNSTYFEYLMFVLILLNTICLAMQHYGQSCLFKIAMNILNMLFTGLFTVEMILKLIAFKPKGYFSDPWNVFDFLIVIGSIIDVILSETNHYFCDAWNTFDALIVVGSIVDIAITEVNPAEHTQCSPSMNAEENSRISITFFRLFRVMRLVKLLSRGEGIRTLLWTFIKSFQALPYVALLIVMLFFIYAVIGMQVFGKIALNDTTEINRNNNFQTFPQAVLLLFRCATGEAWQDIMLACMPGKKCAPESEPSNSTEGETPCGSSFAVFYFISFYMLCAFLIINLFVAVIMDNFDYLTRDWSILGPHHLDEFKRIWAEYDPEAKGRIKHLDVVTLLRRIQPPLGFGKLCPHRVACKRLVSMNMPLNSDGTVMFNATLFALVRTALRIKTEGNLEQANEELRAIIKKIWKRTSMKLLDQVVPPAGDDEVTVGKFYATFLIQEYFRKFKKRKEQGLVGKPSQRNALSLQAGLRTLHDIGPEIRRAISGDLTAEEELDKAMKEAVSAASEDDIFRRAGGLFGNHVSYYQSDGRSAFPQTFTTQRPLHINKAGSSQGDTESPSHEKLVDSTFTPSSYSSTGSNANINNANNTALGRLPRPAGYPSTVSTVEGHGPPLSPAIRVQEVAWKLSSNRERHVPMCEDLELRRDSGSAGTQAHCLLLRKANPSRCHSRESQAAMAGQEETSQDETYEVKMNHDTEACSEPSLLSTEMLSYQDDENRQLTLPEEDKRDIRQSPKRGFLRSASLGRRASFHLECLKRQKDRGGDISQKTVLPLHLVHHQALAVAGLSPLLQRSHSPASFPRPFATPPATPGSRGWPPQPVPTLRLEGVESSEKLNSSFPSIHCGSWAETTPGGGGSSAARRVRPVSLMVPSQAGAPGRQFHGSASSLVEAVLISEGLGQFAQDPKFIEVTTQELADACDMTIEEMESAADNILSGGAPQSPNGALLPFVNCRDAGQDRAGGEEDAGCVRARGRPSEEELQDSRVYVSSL

CCOc1nc2cccc(C(=O)O)c2n1Cc1ccc(-c2ccccc2-c2nnn[nH]2)cc1
AC50 [1]: > 10 µM
AC50 [2]: > 10 µM
AC50 (D(1A) dopamine receptor): > 10 µM
AC50 (Cannabinoid receptor 1): > 10 µM
AC50 (Estrogen receptor beta): > 30 µM
AC50 (Androgen receptor [3]): > 30 µM
AC50 [4]: > 10 µM
AC50 [5]: > 10 µM

CCCc1nc2c(C)cc(-c3nc4ccccc4n3C)cc2n1Cc1ccc(-c2ccccc2C(=O)O)cc1
AC50 [1]: > 10 µM
AC50 [2]: > 10 µM
AC50 (D(1A) dopamine receptor): > 10 µM
AC50 (Cannabinoid receptor 1): > 10 µM
AC50 (Estrogen receptor beta): > 30 µM
AC50 [5]: > 10 µM

CCOc1cc([C@@H](CS(C)(=O)=O)N2C(=O)c3cccc(NC(C)=O)c3C2=O)ccc1OC
AC50 [6]: > 30 µM
AC50 [7]: > 50 µM
AC50 (Thromboxane A2 receptor): > 30 µM
AC50 (Acetylcholinesterase): > 30 µM

CC(C(=O)O)c1ccc2oc(-c3ccc(Cl)cc3)nc2c1 (stereo not drawn) [BENOXAPROFEN]
AC50 (Androgen receptor [8]): > 30 µM

O=C(O)c1ccccc1 [BENZOIC ACID]
AC50 [6]: 18 µM

Cc1nnc(SCC2=C(C(=O)O)N3C(=O)[C@@H](NC(=O)Cn4cnnn4)[C@H]3SC2)s1 [CEFAZOLIN]
AC50 (Thromboxane A2 receptor): > 300 µM
AC50 (Acetylcholinesterase): > 300 µM

CC=CC1=C(C(=O)O)N2C(=O)[C@@H](NC(=O)[C@H](N)c3ccc(O)cc3)[C@H]2SC1 [CEFPROZIL]
AC50 (Androgen receptor [3]): > 30 µM

CC(C)(O/N=C(\C(=O)N[C@@H]1C(=O)N2C(C(=O)[O-])=C(C[n+]3ccccc3)CS[C@H]12)c1csc(N)n1)C(=O)O [CEFTAZIDIME]
AC50 (Thromboxane A2 receptor): > 300 µM
AC50 (Acetylcholinesterase): > 300 µM

CC(C)NC(=N)NC(=N)Nc1ccc(Cl)c(Cl)c1 [CHLORPROGUANIL]
AC50 [9]: > 30 µM

CCCNC(=O)NS(=O)(=O)c1ccc(Cl)cc1 [CHLORPROPAMIDE]
AC50 (Estrogen receptor beta): > 30 µM

Clc1ccc(Cn2c(CN3CCCC3)nc3ccccc32)cc1 [CLEMIZOLE]
AC50 (Thromboxane A2 receptor): > 10 µM
AC50 (Acetylcholinesterase): > 30 µM

CCC(=O)O[C@]1(C(=O)CCl)[C@@H](C)C[C@H]2[C@@H]3CCC4=CC(=O)C=C[C@]4(C)[C@@]3(F)[C@@H](O)C[C@@]21C [CLOBETASOL PROPIONATE]
AC50 (Androgen receptor [8]): 27 µM

Cc1nc(Nc2ncc(C(=O)Nc3c(C)cccc3Cl)s2)cc(N2CCN(CCO)CC2)n1 [DASATINIB]
AC50 [1]: 7.6 µM
AC50 [2]: > 10 µM
AC50 (D(1A) dopamine receptor): > 10 µM
AC50 (Cannabinoid receptor 1): > 10 µM
AC50 [4]: > 10 µM

O=C(O)Cc1ccccc1Nc1c(Cl)cccc1Cl [DICLOFENAC]
AC50 [1]: > 10 µM
AC50 [2]: > 10 µM
AC50 (D(1A) dopamine receptor): > 10 µM
AC50 (Cannabinoid receptor 1): > 10 µM
AC50 (Estrogen receptor beta): > 30 µM
AC50 (Androgen receptor [3]): > 30 µM
AC50 [4]: > 10 µM
AC50 [5]: > 10 µM

CN[C@@H]1[C@H](O[C@H]2[C@H](O[C@H]3[C@H](O)[C@@H](O)[C@H](NC(=N)N)[C@@H](O)[C@@H]3NC(=N)N)O[C@@H](C)[C@]2(O)CO)O[C@@H](CO)[C@H](O)[C@H]1O [DIHYDROSTREPTOMYCIN]
AC50 [9]: > 30 µM

O=C(O)Cc1ccccc1Oc1ccc(Cl)cc1Cl [FENCLOFENAC]
AC50 [1]: > 10 µM
AC50 (D(1A) dopamine receptor): > 10 µM

Cc1onc(-c2c(F)cccc2Cl)c1C(=O)N[C@@H]1C(=O)N2[C@@H]1SC(C)(C)[C@@H]2C(=O)O [FLOXACILLIN]
AC50 (Thromboxane A2 receptor): > 30 µM
AC50 (Acetylcholinesterase): > 30 µM

Cc1ccc(C)c(OCCCC(C)(C)C(=O)O)c1 [GEMFIBROZIL]
AC50 [1]: > 10 µM
AC50 (D(1A) dopamine receptor): > 10 µM
AC50 (Estrogen receptor beta): > 30 µM
AC50 (Androgen receptor [3]): > 30 µM

C#C[C@]1(O)C=C[C@H]2[C@@H]3CCC4=CC(=O)CC[C@@H]4[C@H]3CC[C@@]21CC [GESTODENE]
AC50 [9]: > 30 µM

COc1ccccc1OC1(C)OC(=O)c2ccccc2O1 (stereo not drawn) [GUAIMESAL]
AC50 (Androgen receptor [8]): > 30 µM

CCCCCCCN(CC)CCCC(O)c1ccc(NS(C)(=O)=O)cc1 (stereo not drawn) [IBUTILIDE]
AC50 [7]: > 30 µM

COc1cc(C(C)=O)ccc1OCCCN1CCC(c2noc3cc(F)ccc23)CC1 [ILOPERIDONE]
AC50 [2]: 0.257 µM
AC50 (D(1A) dopamine receptor): 0.0684 µM

CC[C@H](C)C(=O)O[C@H]1C[C@@H](C)C=C2C=C[C@H](C)[C@H](CC[C@@H]3C[C@@H](O)CC(=O)O3)[C@H]21 [LOVASTATIN]
AC50 [1]: > 10 µM
AC50 (D(1A) dopamine receptor): > 10 µM
AC50 (Estrogen receptor beta): > 30 µM

CC[C@@H](CO)NC(=O)[C@@H]1C=C2c3cccc4c3c(cn4C)C[C@H]2N(C)C1 [METHYSERGIDE]
AC50 (Estrogen receptor beta): 24.5 µM

CNC(=C[N+](=O)[O-])NCCSCc1csc(CN(C)C)n1 [NIZATIDINE]
AC50 (Androgen receptor [3]): > 10 µM

CN1Cc2c(N)cccc2C(c2ccccc2)C1 (stereo not drawn) [NOMIFENSINE]
AC50 [6]: 28.8 µM

C=CC(=O)Nc1cccc(Oc2nc(Nc3ccc(N4CCN(C)CC4)cc3)nc3ccsc23)c1 [OLMUTINIB]
AC50 [6]: 0.44 µM

CC(CN1c2ccccc2Sc2ccccc21)N(C)C (stereo not drawn) [PROMETHAZINE]
AC50 [1]: 0.0679 µM
AC50 (D(1A) dopamine receptor): 3.38 µM
AC50 (Estrogen receptor beta): > 30 µM

CN(CCOc1ccc(CC2SC(=O)NC2=O)cc1)c1ccccn1 (stereo not drawn) [ROSIGLITAZONE]
AC50 [1]: > 10 µM
AC50 [2]: > 10 µM
AC50 (D(1A) dopamine receptor): > 10 µM
AC50 (Cannabinoid receptor 1): > 10 µM
AC50 (Estrogen receptor beta): > 30 µM
AC50 [5]: > 10 µM

S=P(N1CC1)(N1CC1)N1CC1 [THIOTEPA]
AC50 (Thromboxane A2 receptor): > 10 µM
AC50 (Acetylcholinesterase): > 30 µM

Cc1ccccc1C(=O)Nc1ccc(C(=O)N2CCCC(O)c3cc(Cl)ccc32)c(C)c1 (stereo not drawn) [TOLVAPTAN]
AC50 [6]: > 30 µM

CC(C)[C@H](N)C(=O)OCCOCn1cnc2c(=O)[nH]c(N)nc21 [VALACYCLOVIR]
AC50 [1]: > 10 µM
AC50 (D(1A) dopamine receptor): > 10 µM
AC50 (Estrogen receptor beta): > 30 µM

O=C1Cc2cc(CCN3CCN(c4nsc5ccccc45)CC3)c(Cl)cc2N1 [ZIPRASIDONE]
AC50 [1]: 0.0137 µM
AC50 [6]: 0.0035 µM
AC50 [7]: > 50 µM
AC50 (Estrogen receptor beta): > 30 µM
